Assay [1] has as its system KRAS G12V mutant NCI-H727 cells. Put plainly: Proliferation inhibition of NCI-H727 cells, 3D CellTiter-Glo assay (Method B). Format: cell-based, human. To be noted: Homo sapiens, NCI-H727, 120 h, Method B; 3D culture with 0.65% methylcellulose, 5 days, CTG; read-out: NCI-H727 IC50/nM. The procedure:
NCI-H727 cells (Nanjing Kebai Biotechnology Co., Ltd., catalog number CBP60182, adherent, culture medium RPMI-1640+10%FBS (GIBCO, Cat#10091-148)) were cultured at 37°C, 5% CO2, and 95% humidity.
3D cell viability assay: Cells in the logarithmic growth phase were harvested and counted using a platelet counter. Cell viability was assessed using the trypan blue exclusion method to ensure a viability of over 90%. The 3D cell culture medium was prepared by adding 1% MC (methylcellulose, Sigma, Cat#M0512) to RPMI-1640 medium and 10% FBS. The cell concentration was adjusted to approximately 25,000 cells/mL using the 3D medium, and the methylcellulose (MC) content was set to 0.65%. Then, 80 µL of cell suspension was added to each 96-well clear, flat-bottomed, black-walled plate (Greiner, Cat# 655096). The cells in the 96-well plates were cultured overnight at 37°C and 5% CO2.
Drug preparation for IC50 assay: A 5-fold drug solution was prepared using culture medium. 20 µL of the drug solution was added to each well of a 96-well plate seeded with cells to achieve a working concentration of up to 10 µM, with a 3× dilution, and 9 concentrations. 2 replicate wells for each drug concentration were set. The cells in the drug-treated 96-well plates were cultured at 37°C and 5% CO2 for additional 5 days, then CTG assay (CellTiter-Glo® Luminescent Cell Viability Assay (Promega, Cat#G7573)) were performed.
The cell plate was equilibrated to room temperature for 30 minutes and the CTG reagent was thawed. 50 µL of CTG solution was added to each well for detection and the plate was shaken on an orbital shaker for 5 minutes to lyse the cells. The cell plate was then placed at room temperature for 25 minutes to stabilize the cryo-luminescence signal, and the cryo-luminescence value was read (EnVision® multi-plate reader, PerkinElmer#2105).
(§1) Data was analyzed using GraphPad Prism software. The dose-response-inhibition equation was used to fit the data to obtain the dose-response curve, and the IC50 value (nM) was calculated accordingly. [formula]
A general note: Cellular ATP, detected with luciferase, serves as a proxy for viable cell number.

Assay [2] deals with KRAS G12D mutant AGS cells. Briefly: Proliferation inhibition of AGS cells, CellTiter-Glo assay. Format: cell-based, human. To be noted: Homo sapiens, AGS, 72 h, 3 days, CTG; read-out: AGS IC50/nM. As to the method: AGS cells (Nanjing Kebai Biotechnology Co., Ltd., catalog number CBP60476, adherent, culture medium (F12K Nutrient Mixture+10% FBS (GIBCO, Cat#10091-148) were cultured at 37°C, 5% CO2, and 95% humidity at a density of 1500 cells/well. Cells in the logarithmic growth phase were harvested and counted using a Countstar automated cell counter based on the classic trypan blue staining method to ensure cell viability was above 90%. The cell concentration was adjusted, and 80 µL of cell suspension was added to each 96-well clear flat-bottomed, black-walled plate (Greiner, Cat# 655090). The cells in the 96-well plates were then cultured at 37°C and 5% CO2.
Drug preparation for IC50 assay: A 5-fold drug solution was prepared using culture medium. 20 µL of the drug solution was added to each well of a 96-well plate seeded with cells to achieve a working concentration of up to 10 µM, with a 3 × dilution, and a total of 9 concentrations. 2 replicate wells for each drug concentration were set. The cells in the drug-treated 96-well plates were cultured at 37°C and 5% CO2 for additional 3 days and then CTG assay were performed.
The cell plate was equilibrated to room temperature for 30 minutes and the CTG reagent (CellTiter-Glo® Luminescent Cell Viability Assay (Promega, Cat# G7573)) was thawed. 50 µL of CTG solution was added to each well and the plate was shaken on an orbital shaker for 2 minutes to lyse the cells. The cell plate was placed at room temperature for 10 minutes to stabilize the cryo-luminescence signal and the cryo-luminescence value was read (EnVision® Multifunctional microplate reader, PerkinElmer #2105).
as §1

These results are taken from patent EP4775577A1, “RAS INHIBITOR” (Tyligand Bioscience (Shanghai) Limited, priority 2023, dated 2025).

Turning to `CCC1CCn2nc(C(=O)N(C)C)cc2CN1c1nc(OCC2(C)CN(CC)CCC2=CF)nc2c(F)c(-c3c(F)ccc4sc(N)c(C#N)c34)c(Cl)cc12` (stereo not shown) [Example 250A], the IC50 in assay [1] and in assay [2] was less than 1.5 nM throughout.
For the molecule `CN1CC/C(=C\F)[C@](C)(COc2nc(N3CCCn4nc(C(=O)N(C)C)cc4C3)c3cc(Cl)c(-c4cccc5sc(N)c(C#N)c45)c(F)c3n2)C1` (atropisomer, axis not shown; (Sa)) [Example 94A, (Sa)-5-(7-(2-amino-3-cyanobenzo[b]thiophene-4-yl)-6-chloro-8-fluoro-2-(((S,E)-4-(fluoromethylene)-1,3-dimethylpiperidine-3-yl)methoxy)quinazoline-4-yl)-N,N-dimethyl-5,6,7,8-tetrahydro-4H-pyrazolo[1,5-a][1,4]diazepine-2-formamide·formate], the IC50 in assay [1] stood at 9 nM; in assay [2], 3.3 nM.
For the molecule `CCN1CC[C@H](C(F)F)[C@](C)(COc2nc(N3Cc4c(COC)c(C(=O)N(C)C)nn4CC[C@@H]3C)c3cc(C(F)(F)F)c(-c4ncc(F)c5sc(N)c(C#N)c45)c(F)c3n2)C1` [Example 272A], the IC50 came out at 10.4 nM in assay [1] and 12.5 nM in assay [2].
With `CN1CC/C(=C\F)[C@](C)(COc2nc(N3CCCn4nc(C(=O)N(C)C)cc4C3)c3cc(C(F)F)c(-c4cccc5sc(N)c(C#N)c45)c(F)c3n2)C1` [Example 100], the values for the IC50 in assay [1] and in assay [2] were 47.7 nM and 20 nM, respectively.
As to `[2H]C([2H])([2H])N1CC/C(=C\F)[C@](C)(COc2nc(N3Cc4cc(C(=O)N(C)CCOC)nn4CC[C@@H]3C)c3cc(CC)c(-c4c(F)ccc5sc(N)c(C#N)c45)c(F)c3n2)C1` (atropisomer, axis not shown) [Example 267A], the IC50 in assay [1] came to 3.9 nM; in assay [2], 4.4 nM.
On the same counts, the results for `[2H]C([2H])([2H])N1CC[C@H](C(F)F)[C@](C)(COc2nc(N3CCOC[C@@](C)(O)C3)c3cc(Cl)c(-c4cccc5sc(N)c(C#N)c45)c(F)c3n2)C1` [Example 83] are 20.2 nM and 38.2 nM.
With `CCc1cc2c(N3CCCn4nc(C(=O)N(C)C)c(Cl)c4C3)nc(OC[C@]3(C)CN(C)CC/C3=C\F)nc2c(F)c1-c1ncc(F)c2sc(N)c(C#N)c12` [Example 169A], the IC50 in assay [1] was determined as 59.9 nM; in assay [2], 14.6 nM.
For the molecule `CCc1cc2c(N3Cc4cc(C(=O)N(C)C)nn4CC[C@@H]3C)nc(OC[C@]3(C)CN(C)CC/C3=C\F)nc2c(F)c1-c1ccc(F)c2sc(N)c(C#N)c12` [Example 166A], the IC50 amounted to 7.4 nM in assay [1] and 4.9 nM in assay [2].
Take `CCN1CCC(=CF)C(C)(COc2nc(N3Cc4cc(C(=O)N5CCN(C)CC5)nn4CCC3C)c3cc(Cl)c(-c4c(F)ccc5sc(N)c(C#N)c45)c(F)c3n2)C1` (stereo not shown) [Example 261A]: the IC50 in assay [1] was 1.9 nM; in assay [2], less than 1.5 nM.
Consider `[2H]C([2H])([2H])N1CC[C@H](C(F)F)[C@](C)(COc2nc(N3CCCn4nc(C(=O)N(C)C)cc4C3)c3cc(C(F)(F)F)c(-c4c(F)ccc5sc(N)c(C#N)c45)c(F)c3n2)C1` [Example 67, 5-(7-(2-Amino-3-cyano-5-fluorobenzo[b]thiophene-4-yl)-2-(((3S,4S)-4-(difluoromethyl)-3-methyl-1-(methyl-d3)piperidine-3-yl)methoxy)-8-fluoro-6-(trifluoromethyl)quinazoline-4-yl)-N,N-dimethyl-5,6,7,8-tetrahydro-4H-pyrazolo[1,5-a][1,4]diazepine-2-formamide], for which the IC50 stood at 6.3 nM in assay [1] and 1.75 nM in assay [2].
On to `[2H]C([2H])([2H])N1CC/C(=C\F)[C@](C)(COc2nc(N3Cc4c(Cl)c(C(=O)N(C)C)nn4CC[C@@H]3C)c3cc(CC)c(-c4c(F)ccc5sc(N)c(C#N)c45)c(F)c3n2)C1` (single isomer, unassigned) [Example 182A], for which the IC50 in assay [1] was less than 1.5 nM; in assay [2], 2 nM.
With `CCN1CC/C(=C\F)[C@](C)(COc2nc(N3CCCn4nc(C(=O)N(C)C)c(Cl)c4C3)c3cc(C(F)(F)F)c(-c4ncc(F)c5sc(N)c(C#N)c45)c(F)c3n2)C1` [Example 253], the IC50 in assay [1] is 8.7 nM; in assay [2], 2.5 nM.
As for `[2H]C([2H])([2H])N1CC[C@H](C(F)F)[C@](C)(COc2nc(N3CCCn4nc(C(=O)N(C)C)cc4C3)c3cc([N+](=O)[O-])c(-c4cccc5sc(N)c(C#N)c45)c(F)c3n2)C1` [Example 95, 5-(7-(2-Amino-3-cyanobenzo[b]thiophene-4-yl)-2-(((3S,4S)-4-(difluoromethyl)-3-methyl-1-(methyl-d3)piperidine-3-yl)methoxy)-8-fluoro-6-nitroquinazoline-4-yl)-N,N-dimethyl-5,6,7,8-tetrahydro-4H-pyrazolo[1,5-a][1,4]diazepine-2-formamide], the values for the IC50 in assay [1] and in assay [2] were 36.1 nM and 10.5 nM, respectively.
`CCN1CCC(=CF)C(C)(COc2nc(N3Cc4cc(C(=O)N5CCCC5)nn4CCC3C)c3cc(Cl)c(-c4c(F)ccc5sc(N)c(C#N)c45)c(F)c3n2)C1` (stereo not shown) [Example 262A]: the values for the IC50 in assay [1] and in assay [2] were 2.4 nM and 2.9 nM, respectively.
Take `[2H]C([2H])([2H])N1CC/C(=C\F)[C@](C)(COc2nc(N3Cc4c(C#C)c(C(=O)N(C)C)nn4CC[C@@H]3C)c3cc(CC)c(-c4c(F)ccc5sc(N)c(C#N)c45)c(F)c3n2)C1` (single isomer, unassigned) [Example 184A]: the results for the IC50 in assay [1] and in assay [2] were 4.3 nM and 3.4 nM, respectively.
On to `CCc1cc2c(N3Cc4cc(C(=O)N(C)C)nn4CCC3C)nc(OCC3(C)CN(CC)CCC3=CF)nc2c(Cl)c1-c1c(F)ccc2sc(N)c(C#N)c12` (stereo not shown) [Example 193], for which the IC50 in assay [1] is 2.1 nM; in assay [2], less than 1.5 nM.
`[2H]C([2H])([2H])N1CC/C(=C\F)[C@](C)(COc2nc(N3CCCn4nc(C(=O)N(C)C)cc4C3)c3cc([N+](=O)[O-])c(-c4cccc5sc(N)c(C#N)c45)c(F)c3n2)C1` [Example 98]: the IC50 in assay [1] came out at 27.1 nM; in assay [2] it was 15.8 nM.
As to `[2H]C([2H])([2H])N1CCC(=CF)C(C)(COc2nc(N3Cc4cc(C(=O)N(C([2H])([2H])[2H])C([2H])([2H])[2H])nn4CCC3C)c3cc(CC)c(-c4c(F)ccc5sc(N)c(C#N)c45)c(F)c3n2)C1` (single isomer, unassigned) [Example 185A], the IC50 in assay [1] and in assay [2] was less than 1.5 nM each time.
Turning to `[2H]C([2H])([2H])N1CCC(C(F)F)C(C)(COc2nc(N3CCOCC(C)(O)C3)c3cc(C(F)(F)F)c(-c4ccc(F)c5sc(N)c(C#N)c45)c(F)c3n2)C1` (stereo not shown) [Example 99], the IC50 is 2.4 nM in assay [1] and 13.1 nM in assay [2].
`CNC(=O)c1cc2n(n1)CCCN(c1nc(OC[C@]3(C)CN(C)CC/C3=C\F)nc3c(F)c(-c4cccc5sc(N)c(C#N)c45)c(C(F)(F)F)cc13)C2` [Example 118]: the figures for the IC50 in assay [1] and in assay [2] were 35.5 nM and 12.8 nM, respectively.
On the same counts, the results for `[2H]C([2H])([2H])N1CC[C@H](C(F)F)[C@](C)(COc2nc(N3CCOC[C@@](C)(O)C3)c3cc(C#N)c(-c4cccc5sc(N)c(C#N)c45)c(F)c3n2)C1` [Example 91] are 48.5 nM and 84.7 nM.
In the case of `CCc1cc2c(N3Cc4cc(C(=O)N(C)C)nn4CC[C@@H]3C)nc(OC[C@]3(C)CN(C)CC/C3=C\F)nc2c(F)c1-c1ncc(F)c2sc(N)c(C#N)c12` [Example 170A], the IC50 in assay [1] was 81.9 nM; in assay [2], 33.2 nM.
On the same counts, the results for `[2H]C([2H])([2H])N1CC/C(=C\F)[C@](C)(COc2nc(N3Cc4cc(C(=O)NC)nn4CC[C@@H]3C)c3cc(CC)c(-c4c(F)ccc5sc(N)c(C#N)c45)c(F)c3n2)C1` [Example 270A] are 4.9 nM and 3.6 nM.
